The record followed here is ChEMBL document CHEMBL4725259 (Bioorg Med Chem, 2020).

Assay [1] has as its target Vasopressin V1a receptor (Homo sapiens) (UniProt P37288). The experiment in a line: Antagonist activity at AVPR1A in human U2OS cells at 20 uM by PathHunter beta-arrestin assay. The settings on record: filed as antagonist. The format is cell-based.
The target of assay [2] is D(2) dopamine receptor (Homo sapiens) (UniProt P14416). The experiment in a line: Antagonist activity at human DRD2L expressed in CHO-K1 cells at 20 uM by PathHunter beta-arrestin assay relative to control. In kind it is cell-based. The settings on record: filed as antagonist.
Sequence of D(2) dopamine receptor (Homo sapiens) (P14416 whole entry): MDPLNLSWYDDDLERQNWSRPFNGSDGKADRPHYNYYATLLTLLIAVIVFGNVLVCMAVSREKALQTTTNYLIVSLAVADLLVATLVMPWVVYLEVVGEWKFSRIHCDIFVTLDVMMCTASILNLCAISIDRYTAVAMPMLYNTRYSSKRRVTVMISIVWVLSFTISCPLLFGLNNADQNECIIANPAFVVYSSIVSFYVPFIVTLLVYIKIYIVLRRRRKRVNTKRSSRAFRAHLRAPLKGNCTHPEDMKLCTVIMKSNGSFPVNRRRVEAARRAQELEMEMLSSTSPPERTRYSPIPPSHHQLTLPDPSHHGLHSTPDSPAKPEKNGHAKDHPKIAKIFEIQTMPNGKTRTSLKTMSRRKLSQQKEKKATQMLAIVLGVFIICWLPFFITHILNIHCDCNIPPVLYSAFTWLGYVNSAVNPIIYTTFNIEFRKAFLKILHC
Assay [3] addresses T1, C-C chemokine receptor type 3 (Homo sapiens) (UniProt P51677).
T1 sequence (whole entry): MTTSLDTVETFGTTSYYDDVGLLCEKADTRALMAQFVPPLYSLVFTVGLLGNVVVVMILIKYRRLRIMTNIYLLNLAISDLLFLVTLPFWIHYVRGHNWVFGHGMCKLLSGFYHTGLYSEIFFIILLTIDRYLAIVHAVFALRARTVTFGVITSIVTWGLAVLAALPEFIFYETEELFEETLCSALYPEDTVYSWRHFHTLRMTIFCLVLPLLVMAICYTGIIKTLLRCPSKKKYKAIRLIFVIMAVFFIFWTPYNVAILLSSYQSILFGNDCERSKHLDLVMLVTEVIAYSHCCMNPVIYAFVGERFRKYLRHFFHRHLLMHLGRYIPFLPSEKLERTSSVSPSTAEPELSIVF
As to the kind of experiment: Antagonist activity at human CCR3 expressed in CHO-K1 cells at 20 uM by PathHunter beta-arrestin assay relative to control. In kind it is cell-based. Particulars: filed as antagonist.

In another assay the target is Vasopressin V2 receptor (Homo sapiens, UniProt P30518). As to the kind of experiment: Antagonist activity at human AVPR2 by PathHunter beta-arrestin assay.
Sequence of Vasopressin V2 receptor (P30518 whole entry): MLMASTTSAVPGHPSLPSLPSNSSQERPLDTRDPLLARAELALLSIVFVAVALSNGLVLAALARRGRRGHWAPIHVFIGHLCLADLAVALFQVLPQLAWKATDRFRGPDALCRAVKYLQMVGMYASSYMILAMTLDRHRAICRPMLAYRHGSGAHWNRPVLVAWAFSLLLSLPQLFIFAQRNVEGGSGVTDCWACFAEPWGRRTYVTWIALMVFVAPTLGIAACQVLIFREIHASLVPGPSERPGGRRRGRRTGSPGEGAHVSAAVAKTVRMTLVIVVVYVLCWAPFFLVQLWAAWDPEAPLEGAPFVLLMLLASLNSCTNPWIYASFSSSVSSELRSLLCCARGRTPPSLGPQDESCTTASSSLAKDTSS
For the next assay, the system named is U2OS. As to the kind of experiment: Agonist activity at NPSR1B in human U2OS cells at 20 uM by PathHunter beta-arrestin assay relative to control. The format is cell-based.
In assay [4] the target is T2, Vasopressin V1b receptor (Homo sapiens) (UniProt P47901).
T2 sequence (whole entry): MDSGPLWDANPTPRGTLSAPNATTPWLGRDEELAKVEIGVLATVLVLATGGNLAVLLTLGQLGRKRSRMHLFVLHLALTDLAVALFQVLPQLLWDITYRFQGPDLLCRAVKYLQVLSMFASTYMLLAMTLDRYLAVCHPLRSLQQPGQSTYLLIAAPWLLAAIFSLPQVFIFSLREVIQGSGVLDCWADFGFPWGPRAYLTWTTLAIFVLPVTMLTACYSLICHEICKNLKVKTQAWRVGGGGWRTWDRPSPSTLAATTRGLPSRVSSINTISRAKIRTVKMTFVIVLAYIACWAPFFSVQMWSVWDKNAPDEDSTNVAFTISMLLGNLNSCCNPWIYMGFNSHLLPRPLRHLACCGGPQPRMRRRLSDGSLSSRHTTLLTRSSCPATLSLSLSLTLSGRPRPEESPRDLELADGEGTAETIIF
The experiment in a line: Antagonist activity at human AVPR1B expressed in CHO-K1 cells at 20 uM by PathHunter beta-arrestin assay. The format is cell-based. Particulars: filed as antagonist.

Assay [5] deals with T3, C-X-C chemokine receptor type 4 (Homo sapiens, UniProt P61073). As to the kind of experiment: Agonist activity at human CXCR4 expressed in mouse C2C12 cells at 20 uM by PathHunter beta-arrestin assay relative to control. In kind it is cell-based.
T3 sequence (P61073 whole entry): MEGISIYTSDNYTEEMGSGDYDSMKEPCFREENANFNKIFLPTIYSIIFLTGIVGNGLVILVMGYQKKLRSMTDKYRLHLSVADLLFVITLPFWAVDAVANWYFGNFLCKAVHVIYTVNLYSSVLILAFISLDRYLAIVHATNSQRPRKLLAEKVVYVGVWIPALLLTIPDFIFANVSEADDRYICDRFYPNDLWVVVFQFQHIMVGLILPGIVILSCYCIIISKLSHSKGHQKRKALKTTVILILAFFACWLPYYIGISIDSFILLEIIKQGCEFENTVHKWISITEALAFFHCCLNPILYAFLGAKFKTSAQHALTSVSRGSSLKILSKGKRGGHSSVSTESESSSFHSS
Assay [6] has as its target T4, CX3C chemokine receptor 1 (Homo sapiens) (UniProt P49238).
T4 sequence (whole entry): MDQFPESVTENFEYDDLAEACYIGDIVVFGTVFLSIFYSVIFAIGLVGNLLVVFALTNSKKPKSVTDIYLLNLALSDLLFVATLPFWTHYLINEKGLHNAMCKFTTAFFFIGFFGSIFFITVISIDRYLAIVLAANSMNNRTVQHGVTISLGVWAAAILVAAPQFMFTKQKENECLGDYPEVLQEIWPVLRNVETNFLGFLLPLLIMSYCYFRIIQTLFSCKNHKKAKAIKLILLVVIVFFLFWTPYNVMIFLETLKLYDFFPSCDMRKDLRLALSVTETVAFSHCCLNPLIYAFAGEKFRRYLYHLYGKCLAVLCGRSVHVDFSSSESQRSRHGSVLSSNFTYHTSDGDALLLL
As to the kind of experiment: Antagonist activity at human CX3CR1 expressed in CHO-K1 cells at 20 uM by PathHunter beta-arrestin assay relative to control. The format is cell-based. The settings on record: filed as antagonist.

The next assay deals with T5, Oxytocin receptor (Homo sapiens, UniProt P30559).
T5 sequence (P30559 whole entry): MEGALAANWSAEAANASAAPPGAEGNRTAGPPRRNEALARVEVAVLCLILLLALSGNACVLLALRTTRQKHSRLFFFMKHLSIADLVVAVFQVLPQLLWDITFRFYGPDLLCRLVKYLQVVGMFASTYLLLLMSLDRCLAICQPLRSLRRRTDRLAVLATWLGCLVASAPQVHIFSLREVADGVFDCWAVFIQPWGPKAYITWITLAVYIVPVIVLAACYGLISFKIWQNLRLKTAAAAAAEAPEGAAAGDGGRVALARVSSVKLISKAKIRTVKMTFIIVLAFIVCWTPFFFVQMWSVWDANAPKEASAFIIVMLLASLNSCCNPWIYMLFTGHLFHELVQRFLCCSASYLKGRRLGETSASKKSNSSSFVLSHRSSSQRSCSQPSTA
The experiment in a line: Antagonist activity at human OXTR expressed in CHO-K1 cells by PathHunter beta-arrestin assay. The format is cell-based.

Assay [7] deals with T1, C-C chemokine receptor type 3 (Homo sapiens). The experiment in a line: Agonist activity at human CCR3 expressed in CHO-K1 cells at 20 uM by PathHunter beta-arrestin assay relative to control. The format is cell-based.
For assay [8], the target named is T6, Prolactin-releasing peptide receptor (Homo sapiens) (UniProt P49683).
T6 sequence (whole entry): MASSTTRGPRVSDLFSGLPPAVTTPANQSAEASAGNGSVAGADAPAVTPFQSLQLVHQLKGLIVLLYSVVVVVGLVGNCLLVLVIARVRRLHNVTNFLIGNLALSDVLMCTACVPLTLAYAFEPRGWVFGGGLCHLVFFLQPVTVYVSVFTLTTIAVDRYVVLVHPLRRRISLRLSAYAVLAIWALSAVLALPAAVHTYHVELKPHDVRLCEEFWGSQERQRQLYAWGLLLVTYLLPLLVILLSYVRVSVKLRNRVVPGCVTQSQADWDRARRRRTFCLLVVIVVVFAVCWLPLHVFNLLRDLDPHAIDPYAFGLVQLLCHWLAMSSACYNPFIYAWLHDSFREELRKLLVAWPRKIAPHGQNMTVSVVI
The experiment in a line: Agonist activity at human PRLHR expressed in CHO-K1 cells at 20 uM by PathHunter beta-arrestin assay relative to control. The format is cell-based.

Assay [9] deals with T7, C-C chemokine receptor type 3 (Homo sapiens, UniProt P51677).
T7 sequence (P51677 whole entry): T1 sequence (whole entry)
As to the kind of experiment: Antagonist activity at human CCR3 expressed in CHO-K1 cells by PathHunter beta-arrestin assay. In kind it is cell-based.

Assay [10] concerns the target T8, CX3C chemokine receptor 1 (Homo sapiens, UniProt P49238).
T8 sequence (P49238 whole entry): T4 sequence (whole entry)
The experiment in a line: Antagonist activity at human CX3CR1 expressed in CHO-K1 cells by PathHunter beta-arrestin assay. The format is cell-based.

In assay [11] the target is C-C chemokine receptor type 8 (Homo sapiens, UniProt P51685). As to the kind of experiment: Antagonist activity at human CCR8 expressed in CHO-K1 cells by PathHunter beta-arrestin assay. The format is cell-based.
Sequence of C-C chemokine receptor type 8 (P51685 whole entry): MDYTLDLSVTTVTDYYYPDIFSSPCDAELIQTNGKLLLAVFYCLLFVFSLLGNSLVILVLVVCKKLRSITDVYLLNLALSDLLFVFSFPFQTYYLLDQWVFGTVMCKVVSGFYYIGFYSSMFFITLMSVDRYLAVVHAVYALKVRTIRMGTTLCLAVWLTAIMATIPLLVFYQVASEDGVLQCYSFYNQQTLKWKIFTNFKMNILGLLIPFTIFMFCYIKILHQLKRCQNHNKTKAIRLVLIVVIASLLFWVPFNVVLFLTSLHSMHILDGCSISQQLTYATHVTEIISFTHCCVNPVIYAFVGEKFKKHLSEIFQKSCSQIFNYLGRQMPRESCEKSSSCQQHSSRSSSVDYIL
The target in assay [12] is T3, C-X-C chemokine receptor type 4. As to the kind of experiment: Antagonist activity at human CXCR4 expressed in mouse C2C12 cells by PathHunter beta-arrestin assay. In kind it is cell-based.

Calls of active or inactive are those of the source. The rule behind the calls is not given here.

Sequence of Vasopressin V1a receptor (Homo sapiens) (P37288 whole entry, looked up): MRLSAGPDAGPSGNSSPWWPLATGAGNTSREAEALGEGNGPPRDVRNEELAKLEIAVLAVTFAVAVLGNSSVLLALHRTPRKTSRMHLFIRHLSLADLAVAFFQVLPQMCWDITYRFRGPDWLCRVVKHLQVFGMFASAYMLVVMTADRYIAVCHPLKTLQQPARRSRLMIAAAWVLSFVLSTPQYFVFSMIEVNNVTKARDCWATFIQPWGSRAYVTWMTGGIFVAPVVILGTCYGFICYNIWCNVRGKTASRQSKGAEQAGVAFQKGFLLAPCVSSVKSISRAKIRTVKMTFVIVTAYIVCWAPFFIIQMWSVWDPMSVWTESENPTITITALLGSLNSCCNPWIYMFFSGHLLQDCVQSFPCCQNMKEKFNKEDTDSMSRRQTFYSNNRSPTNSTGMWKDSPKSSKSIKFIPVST

As for `COC(=O)[C@@H]1[C@H]2C[C@@H]3N(CC[C@@]34C(=O)N(Cc3cccc(OC)c3)c3ccccc34)C[C@@H]2CC[C@@H]1OCc1cccc(OC)c1`, the inhibition result in assay [1] and in assay [4] was “Active” each time. Also, the values for the inhibition in [2], in [3] and in [6] were 9%, 89% and 72%, respectively. Moreover, the IC50 – broadly, the concentration at which inhibition is half-maximal – was “Dose-dependent effect” against Vasopressin V2 receptor, 0.459 µM at Vasopressin V2 receptor (read-out: IC50) and 1.16 µM on Oxytocin receptor. For the same compound, the outcome (in the assay with U2OS; in [5]; in assay [7]; in assay [8]) was inactive.

Consider `COC(=O)[C@@H]1[C@H]2C[C@@H](c3[nH]c4ccccc4c3CCn3cc(-c4cccc(Cl)c4)nn3)N(C#N)C[C@@H]2CC[C@@H]1O`, for which the inhibition (as a rule, the change of the read-out against control, counted positive when it falls) in assay [3] is 112%; in [6] it was 92%. Further, the IC50 in [9] turned out to be 8.3 µM; in [10] it was 8.47 µM; in assay [11], 7.29 µM; in [12], 7.94 µM. The outcome (in the assay on U2OS; in assay [5]; in assay [7]; in [8]) was inactive.
